Here are results for two compounds from patent publication US20090253634A1, “Methods and Compositions for the Treatment of Gastrointestinal Disorders” (MICROBIA, INC., priority 2005, published 2009).

Where two headings read alike, the source gives them in different places. Bridge positions count the residues as written; N and C are the ends. Peptide text beside a SMILES is read from it. Some results are limits rather than exact numbers.

Data set [1] can be described thus: oral bioavailability in rats, LCMS detection. In kind it is in vivo. The following applies: for AUC / bioavailability: rat, plasma, 10 mg/kg; for bioavailability: oral, read-out: 6 h bioavailability determined by circulating plasma levels. Here is the method:
Similarly, oral bioavailabity was determined in rats using LCMS methodology. Rat plasma samples containing SEQ ID NO:3 and/or SEQ ID NO:6 were extracted using a Waters Oasis MAX 96 well solid phase extraction (SPE) plate. A 200 μL volume of rat plasma was mixed with 200 μL of ^13C9, ^15N—SEQ ID NO:3 in the well of a prepared SPE plate. The samples were drawn through the stationary phase with 15 mm Hg vacuum. All samples were rinsed with 200 μL of 2% ammonium hydroxide in water followed by 200 μL of 20% methanol in water. The samples were eluted with consecutive 100 μL volumes of 5/20/75 formic acid/water/methanol and 100 μL 5/15/80 formic acid/water/methanol. The samples were dried under nitrogen and resuspended in 100 μL of 20% methanol in water. Samples were analyzed by a Waters Quattro Micro mass spectrometer coupled to a Waters 1525 binary pump with a Waters 2777 autosampler. A 40 μL volume of each sample was injected onto a Thermo Hypersil GOLD C18 column (2.1×50 mm, 5 um). SEQ ID NO:3 and SEQ ID NO:6 were eluted by a gradient over 3 minutes with acetonitrile and water containing 0.05% trifluoroacetic acid. The Quattro Micro mass spectrometer was run in multiple reaction monitoring (MRM) mode using the mass transitions of 764>182 and 682>136 for SEQ ID NO:3 and SEQ ID NO:6 respectively. Using this methodology, SEQ ID NO:3 was dosed orally and by IV to rats at 10 mg/kg. […] To determine the oral biovailability of SEQ ID NO:6, this peptide was dosed to rats at 10 mg/kg. In this experiment, the limit of detection (LOD) for SEQ ID NO:6 was 0.78 nM. SEQ ID NO:6 was detected at all time points for the intravenous dose and was not detected beyond 240 min for the oral dose. For non-detected values, the LOD was used as an upper estimate of the concentration of SEQ ID NO:6. The calculated value for AUCp.o., (0-6h) was […] and AUCi.v., (0-6h) was 1,590,000 nM-min. The 6 h bioavailability of SEQ ID NO:6 determined by circulating plasma levels was 0.08%

The subject of the next data set is carboxypeptidase A. In words: in vitro proteolytic stability: carboxypeptidase A. Here is the method: The stability of SEQ ID NO:3 in the presence of several mammalian digestive enzymes was determined. SEQ ID NO:3 was exposed to a variety of in vitro conditions including digestive enzymes and low ph environments designed to simulate gastric fluid. SEQ ID NO:3 was incubated with chymotrypsin, trypsin, pepsin, aminopeptidase, carboxypeptidase A, and simulated gastric fluid (sgf) at ph 1.0. Samples were collected at 0, 3, and 24 h for all conditions except pepsin digestion and the SGF. For the latter two conditions, samples were obtained at 0, 1, and 3 h. Negative control samples were prepared for initial and final time points. A separate, positive activity control was run in parallel to SEQ ID NO:3. All samples were analyzed by LC/MS
Five (5) μL of a 40 μg/mL carboxypeptidase inhibitor (carboxypeptidase inhibitor from potato tuber (Sigma-Aldrich, C0279) stock was added to each control sample (0 and 24 h), for a final concentration of 0.4 μg/mL. All control and test (0, 3 and 24 h) samples were incubated at 37° C. for 5 min. Twenty (20) μL of a 0.01 mg/mL carboxypeptidase A (Carboxypeptidase A from human pancreas; Sigma-Aldrich, C5358) stock was added to each sample. The samples were returned to the 37° C. water bath. The reaction was quenched with 5 μL of a 40 μg/mL carboxypeptidase inhibitor at the proper time point. No extra carboxypeptidase inhibitor was added to the control samples since there was already inhibitor present. Samples were subsequently flash frozen in liquid nitrogen, and stored at −80° C. until analysis. Upon analysis, samples were thawed and transferred to a 1 mL 96-well deep microtiter plate. […] These standards were used to generate a standard curve for quantification of samples. When necessary, the standard curves were also used to calculate the concentration of the corresponding digestion product. Ten (10) μL injections were made of each sample and standard. […] For the SEQ.
To further study the SEQ ID NO:3 carboxypeptidase A digestion product, samples of 0.01 mg/mL SEQ ID NO:3 were prepared in the carboxypeptidase A reaction buffer at a total volume of 500 μL in 2 mL eppendorf tubes. Triplicate samples were prepared for the following time points: 0, 15, 30, 60, 120, 180 and 240 min. The samples were incubated at 37° C. for 5 min. Twenty (20) μL of a 0.01 mg/mL carboxypeptidase A stock were added to each sample and returned to the 37° C. water bath. The reactions were quenched with 5 μL of a 40 μg/mL carboxypeptidase inhibitor at the proper time points. Samples were subsequently flash frozen in liquid nitrogen, and stored at −80° C. until analysis. Upon analysis, samples were thawed and transferred to a 1 mL 96-well plate. Standards of SEQ ID NO:3 were prepared in carboxypeptidase A reaction buffer at 0.625, 1.25, 2.50, 5.00, and 10.00 μg/mL concentrations. These standards were used to generate a standard curve for quantification of samples. When necessary, the standard curves were also used to calculate the concentration of the corresponding digestion product. Ten (10) μL injections were made of each sample and standard. If the formation of a digestion product was evident, then a spectral analysis was used to determine the mass of the digestion product, and predict its possible identity.

Consider `C[C@@H]1NC(=O)[C@@H]2CCCN2C(=O)[C@H](CC(N)=O)NC(=O)[C@@H]2CSSC[C@H](N)C(=O)N[C@H]3CSSC[C@H](NC1=O)C(=O)N[C@@H]([C@@H](C)O)C(=O)NCC(=O)N[C@H](C(=O)N[C@@H](Cc1ccc(O)cc1)C(=O)O)CSSC[C@H](NC(=O)[C@H](Cc1ccc(O)cc1)NC(=O)[C@H](CCC(=O)O)NC3=O)C(=O)N2` [SEQ ID NO:3] (H-CCEYCCNPACTGCY-OH; disulfide 1-6, 2-10, 5-13; N-terminus and C-terminus assumed), for which the AUC in data set [1] (iv, rats, 10 mg/kg IV, LCMS, read-out: AUC of SEQ ID NO:3, intravenously administered (converted)) was 12.3 µM·h; in data set [1] (po, rats, 10 mg/kg oral, LCMS, read-out: AUC of SEQ ID NO:3, orally dosed (converted)), 0.0129 µM·h. Further, the bioavailability in data set [1] (rats, LCMS) was found to be 0.11%. The “6 h bioavailability when AUC values for SEQ ID NO:6 are included” value in data set [1] (rats, SEQ ID NO:3 10 mg/kg, LCMS) was determined as 0.13%. For the same compound, the “Cleavage of SEQ ID NO: 3 by proteolytic substance” value with carboxypeptidase A (Carboxypetidase A, 37° C., up to 24 h) is on record as “Yes”. Also, the “SEQ ID NO:3 average concentration” value in the data set with carboxypeptidase A (T0, carboxypeptidase A time course) is 5115 (+/−121) nM; in the data set with carboxypeptidase A (T240 (240 min)) it was 4438 (+/−188) nM. In the data set on carboxypeptidase A (T24 h samples), the “average calculated SEQ ID NO:3 product concentration” value is 1.3 (+/−0.04) μg/mL. The “SEQ ID NO:3 calculated concentration” value in the data set with carboxypeptidase A (all samples (0, 3, 24 h and controls)) is recorded as 8.4 (+/−1.2) μg/mL. Besides, the results for the “calculated concentration of the SEQ ID NO:3 products” value in the data set on carboxypeptidase A (time 0 control (with inhibitor)) and in the data set on carboxypeptidase A (time 0 samples) were 0.8 (+/−0.02) μg/mL and 0.8 (+/−0.01) μg/mL, respectively.
For the compound `C[C@@H]1NC(=O)[C@@H]2CCCN2C(=O)[C@H](CC(N)=O)NC(=O)[C@@H]2CSSC[C@H](N)C(=O)N[C@H]3CSSC[C@H](NC1=O)C(=O)N[C@@H]([C@@H](C)O)C(=O)NCC(=O)N[C@H](C(=O)O)CSSC[C@H](NC(=O)[C@H](Cc1ccc(O)cc1)NC(=O)[C@H](CCC(=O)O)NC3=O)C(=O)N2` [SEQ ID NO:6] (H-CCEYCCNPACTGC-OH; disulfide 1-6, 2-10, 5-13), the AUC is 0.0597 µM·h in data set [1] (iv, rats, SEQ ID NO:3 10 mg/kg IV, metabolite, read-out: AUC for SEQ ID NO:6 in SEQ ID NO:3 intravenously dosed rats (converted)); 26.5 µM·h in data set [1] (iv, rats, SEQ ID NO:6 10 mg/kg intravenous, read-out: AUCi.v., (0-6h) (converted)); 0.0036 µM·h in data set [1] (po, rats, SEQ ID NO:3 10 mg/kg oral, metabolite, read-out: AUC for SEQ ID NO:6 in rats dosed orally with SEQ ID NO:3 (converted)); under 0.0218 µM·h in data set [1] (po, rats, SEQ ID NO:6 10 mg/kg oral, LOD used for non-detected values, read-out: AUCp.o., (0-6h)). In data set [1] (rats, LCMS), the bioavailability is 0.08%. In addition, in data set [1] (rats dosed with SEQ ID NO:3), the “detection as metabolite in plasma” value is listed as “detected in the plasma”. In addition, in data set [1] (rats, SEQ ID NO:6 10 mg/kg oral, LOD 0.78 nM), the “last time detected in plasma after the oral dose” value is on record as at most 240 min. In the data set on carboxypeptidase A (T0), the “average concentration of SEQ ID NO:6 (digestion product of SEQ ID NO:3)” value is 108 (+/−2) nM.
